Measured values published in US5750332A, “Peptomers with enhanced immunogenicity” (priority 1995, dated 1998).
Where “and” joins values, the source holds several entries; their conditions need not be identical. Equal values may be shown once. Read-outs that look alike come from different tables or passages of the source. Where no end group is shown, it is not given here.

Legend:
[1] = Circular dichroism spectroscopy, degree of α-helicity; type: physicochemical; settings: for helix content: circular dichroism, analysis according to Provencher et al.
Excerpt: Circular dichroism spectroscopy was used to determine the degree of α-helicity of the peptomer and the peptide from which it was derived. […] In this case, the peptide contains 8±7% helix, while the peptomer has 31±1%. This establishes that by polymerizing the peptide, the peptomer achieves a conformation that is not favored for the free peptide monomer.
Using circular dichroism spectroscopy as described in Example 5, above, the degree of α-helicity of the peptide (419-436) with and without detergent was determined.

[2] = tested on: antisera from HIV infected individuals; test: ELISA of serum samples on plates coated with peptide or peptomer; type: binding; settings: for ELISA Titer of serum sample: 1 μg/well coated
Experimental: Standard ELISA methods were used in these experiments. Briefly, 96-well polystyrene plates were coated with 1 μg/well of peptide or peptomer. The peptide found 9/27 (33%); the peptomer found 26/27 (96%); 1/10 (10%) false positive with the peptomer.

CD4 = CD4 (Homo sapiens, UniProt P01730); test: Binding of peptide monomer to CD4 in the presence of detergent
MN isolate of HIV1 = test: In vitro neutralization assay with rabbit antisera; type: cell-based; settings: rabbit antibodies, Freund's adjuvant, HIV-1 MN in vitro
Experimental: HIV-1 MN isolate was neutralized at a dilution of 1:70. Neutralization assays were carried as described in Robert-Guroff, et al. in Techniques in HIV Research Aldovini and Walker eds. pp. 179-185 (Aldrich 1990).
gp120 Reactivity was in the dot blot assay. Neutralization was with an in
vitro neutralization assay using the MN isolate of HIV1.

Rhesus monkeys = test: Immune response of Rhesus monkeys: ELISA titer against the peptomer; type: in vivo; settings: for ELISA titer 0 weeks: before peptomer immunization
Experimental: (§1) This experiment was done with Rhesus monkeys that had been primed with various attenuated poxvirus recombinant carrying HIV-1MN genes and boosted with envelope and gag proteins formulated in alum. Six monkeys were used for the studies. Two of the monkeys were immunized with peptomer(419-436) suspended in phosphate-buffered saline (PBS at pH 7.4 without adjuvant) and four were immunized with peptomer(419-436) in alum. Each animal was injected with a single 1 ml bolus containing 1 mg peptomer(419-436) in a subscapular location in order that the immunogen be administered in a lymph node-rich locus. Three weeks after the initial injection, the monkeys were injected again and the final evaluation was performed after an additional three weeks (a total of six weeks from the initial injection).
Three weeks following the initial administration of the peptomer(419-436) an ELISA titer against the peptomer of 1:3,200 was detected for the monkeys immunized with peptomer in alum.

HIV-1 (MN) = HIV-1 (MN) in vitro neutralization by sera of immunized Rhesus monkeys; type: cell-based; settings: 1 mg in PBS at 0 and 3 weeks, reciprocal serum dilution giving 40% neutralization
Experimental: as §1
The neutralization titers are given as the reciprocal of the dilution of
serum that gives a 40% neutralization of HIV1 (MN) infection in vitro. A
negative value means neutralization was not observed at the lowest serum
dilution tested (1:25). The MN isolate was used because this was the
strain used to design the peptomer.

gp120 binding to CD4 = molecular target: T1, gp120 binding to CD4 (Homo sapiens, UniProt P01730); test: ELISA: inhibition of gp120 binding to CD4 by peptomer; set-up: species or system HIV-1; settings: 500 ng/well recombinant soluble gp120 coated, biotinylated CD4, peptomer prepared without lyophilization
T1 construct: recombinant soluble CD4 (Genentech); purchased Genentech
Experimental: C. Inhibition of gp120 binding to CD4 by peptomer(419-436). The ELISA procedure was the same as above except that 500 ng/well of recombinant soluble gp120 was used to coat each well instead of peptomer. Poly-scrambled peptomer is a peptomer that contains all the amino acids as in peptomer(419-436) in a scrambled order.

[3] = Solubility of the peptomer; type: physicochemical
Experimental: b) Polymerization of the peptide monomers to form peptomer (419-436) The peptide polymers were prepared by dissolving 5 mg of the N-bromoacetyl cysteine-containing peptides in 1.0 ml of deoxygenated 0.5M NaHCO3 or 0.1M NaHPO4, pH 7.0-7.5 buffer and stirring these solutions under N2 for 5-12 hours at 25° C. […] They are soluble in 10% acetic acid at less than about 1mg/ml.
The peptomer used in the experiments described in this Example was prepared without a lyophilization step.

[4] = molecular target: recombinant soluble gp120 (Human immunodeficiency virus type 1 group M subtype B, UniProt P05877); settings: rabbit antibodies, dot blot assay
Experimental: The dot blot assays were carried as follows. Peptomers in H2 O were spotted onto nitrocellulose paper. The nitrocellulose was then blocked with 3% bovine serum albumin in tris-buffered saline (TBS) pH 7.4 for 1 hour, then treated with 1 μg/ml biotinylated rsCD4 (Genentech, South San Francisco, Calif.) for 3 hours in a buffer containing TBS and 0.1% Tween 20. The nitrocellulose was then treated with a 1:750 dilution of streptavidin-horseradish peroxidase conjugate and developed.

[5] = tested on: binding of biotinylated CD4 to peptomer(419-436); settings: 10 μg/200 μl peptomer coated; 1 μg/well biotinylated CD4
[6] = diagnosis Hodgkins / lymphoma (control)
[7] = diagnosis Kidney Graft (control)

KIKQIINMWQEVGKAMYA [Peptide 419-436]
α-helix by circular dichroism ([1]; PBS with 0.03% Brij 35, shoulder at 220 λ): presence of an α-helix
helix content [1]: 8±7%
ELISA Titer of serum sample [2, 6]: 0
ELISA Titer of serum sample [2, 7]: 0
ELISA Titer of serum sample ([2]; diagnosis NORMAL (control)): 0
ELISA Titer of serum sample ([2]; diagnosis uveitis (control)): 0
HIV-1(+) serum samples found ([2]; of 27 HIV+/AIDS sera): 33%
HIV-1(+) serum samples found ([2]; positive of 27 HIV+/AIDS sera): 9/27
ability of the peptide monomer to bind CD4 (CD4): enhanced ability

Peptomer (419-436): polymer of N-bromoacetyl cysteine-containing peptide monomers KIKQIINMWQEVGKAMYA, residues 419 to 436 of HIV-1 gp120 (also: polymerized via N-bromoacetyl cysteine, site not given here)
Neutralization (MN isolate of HIV1): None
Neutralization (MN isolate of HIV1; listed as peptomer (419-436)): not able to recognize gp120 or to neutralize HIV-1 infection in vitro
ELISA titer 0 weeks (Rhesus monkeys; Rhesus monkeys, PBS without adjuvant): 0
ELISA titer 0 weeks (Rhesus monkeys; Rhesus monkeys, alum group): 0
ELISA titer against the peptomer, three weeks after initial administration (Rhesus monkeys; Rhesus monkeys, peptomer in PBS): No titer was detected
Immunogenicity in Rhesus monkeys (Rhesus monkeys; monkeys previously immunized with various HIV-related immunogens including gp160/120): immunogenic
HIV-1 (MN) NEUTRALIZATION 6 weeks (HIV-1 (MN)): 40 and 50
helix content [1]: 31±1%
ELISA Titer of serum sample [2, 6]: 0
ELISA Titer of serum sample [2, 7]: 0
ELISA Titer of serum sample ([2]; diagnosis NORMAL (control)): 0
false positive ([2]; of 10 non-HIV sera): 10%
HIV-1(+) serum samples found ([2]; of 27 HIV+/AIDS sera): 96%
false positive ([2]; positive of 10 non-HIV sera): 1/10
HIV-1(+) serum samples found ([2]; positive of 27 HIV+/AIDS sera): 26/27
inhibition of gp120 binding to CD4 (gp120 binding to CD4; listed as peptomer): enhanced ability to block binding
inhibition of gp120 binding to CD4 (gp120 binding to CD4; listed as peptomer(419-436)): inhibition
solubility in 10% acetic acid ([3]; 10% acetic acid): less than 1 mg/ml
solubility in buffered saline solutions ([3]; buffered saline solutions): not soluble
solubility in aqueous solutions ([3]; peptomer prepared without a lyophilization step): increased solubility
solubility in water ([3]; water): only partially soluble
gp120 Reactivity ([4]; Freund's adjuvant): 0
gp120 Reactivity ([4]; Freund's adjuvant, listed as peptomer (419-436)): not able to recognize gp120
gp120 Reactivity ([4]; Ribi's adjuvant): reacted well

recombinant soluble gp120: recombinant soluble HIV-1 envelope glycoprotein gp120
inhibition of biotinylated CD4 binding to peptomer(419-436) [5]: inhibition
